Like-named read-outs stand apart in the source and are kept apart here.
What was measured:
[1] = cited from earlier work
P. Falciparum [2] = conditions: read-out: previously-reported IC50 of chloroquine, cited from earlier work
P. Falciparum [3] = assay: Chloroquine sensitization in chloroquine-resistant P. Falciparum (survival of variants); format: cell-based
Excerpt: Quinine and quinine derivatives including chloroquine inhibit the Plasmodium parasites, including P. Falciparum, by accumulating in food vacuoles and causing accumulation of cytotoxic heme, thereby poisoning the parasite.

[4] = test system: UGA2004 H. contortus isolate eggs; assay: Larval development assay, sensitization to thiabendazole; design: species or system Haemonchus contortus
Protocol: TBZ was provided in a range of concentrations to permit evaluation of the dose response to TBZ in the presence of the pgp inhibitors. After incubation of the eggs for seven days, the number of stage 3 (“L3”) larvae that developed with each treatment was counted.

[5] = test system: multidrug resistant Haemonchus contortus isolate UGA2004 L3 stage larvae; conditions: for inhibition of larval motility compared with verapamil: with IVR, 10 or 20 uM RTI-79, 20 uM RTI-176, 10 uM verapamil
Protocol: Each well contained a 300 uL solution containing approximately 75 L3 stage larvae, IVR, and pgp inhibitor or control. IVR was provided in serially diluted concentrations of 50, 25, 12.5, 6.25, 3.125, 1.56, 0.78 or 0.39 uM, to permit evaluation of the dose response to IVR in the presence of the pgp inhibitors. Inhibition of larval motility was determined by failure of the incubated larvea to move when stimulated by light exposure after incubation.

[6] = Time to maximal plasma concentration / tissue absorption after administration
Excerpt: In certain embodiments, the rifamycin, rifamycin derivative, rifampicin, rifampicin derivative, or pharmaceutically acceptable salt, hydrate, or prodrug thereof, or combination thereof, can be administered in a method that matches the pharmokinetics of the composition to that of the antiparasitic drug also administered to the recipient.

P-gp = conditions: previously demonstrated; cited from earlier work
P. Falciparum [7] = assay: In vitro inhibition of P. falciparum variants, DAPI fluorescence imaging assay in erythrocyte cultures; format: cell-based
Excerpt: Sensitivity of the P. Falciparum variants to (i.e. inhibition of the parasites by) RTI-79chloroquine, or rifamycin was quantitated via assay as previously described. Duffy, S. and V. M. Avery, Development and optimization of a novel 384-well anti-malarial imaging assay validated for high-throughput screening. Am J Trop Med Hyg, 2012. 86(1): p. 84-92. Inhibition of P. Falciparum with various concentrations of the inhibitors was quantified by measuring DAPI fluorescence of parasite DNA in erythrocyte cultures.
Decreased DAPI staining quantified as relative light units (“RLU”), is observed with parasite inhibition in the assays.

Compound: CO[C@H]1/C=C/O[C@@]2(C)Oc3c(C)c(O)c4c(c3C2=O)C2=NC3(CCN(CC(C)C)CC3)NC2=C(NC(=O)/C(C)=C\C=C\[C@H](C)[C@H](O)[C@@H](C)[C@@H](O)[C@@H](C)[C@H](OC(C)=O)[C@@H]1C)C4=O [rifabutin]
- initial half-life of plasma elimination ([1]; biphasic elimination): approximately 4 hours
- mean (±SD) peak plasma concentration (Cmax) ([1]; in vivo, po, 300 mg): 375 (±267) ng/mL
- peak plasma concentration (Cmax), range ([1]; in vivo, po, 300 mg): 141 to 1033 ng/mL

Compound: CCN(CC)CCCC(C)Nc1ccnc2cc(Cl)ccc12 (centres unmarked) [chloroquine]
- IC50 (P. Falciparum [2]; chloroquine-resistant Dd2 variant): 100 nM
- IC50 (P. Falciparum [2]; chloroquine-resistant K1 variant): 255 nM
- IC50 (P. Falciparum [2]; chloroquine-sensitive 3D7 variant): ~10 nM
- parasite survival (P. Falciparum [3]; 3D7 variant, chloroquine at or greater than IC50): death of the parasite
- parasite survival (P. Falciparum [3]; chloroquine-resistant variants, chloroquine alone at or below the 3D7 IC50): survive

Compound: 11-deoxy-11-amino-4-deoxy-3,4[2-spiro-[1-(isobutyloxycarbonyl)-piperidin-4-yl]]-(1H)-imidazo-(2,5-dihydro)rifamycin S [RTI-176]
- shift of TBZ dose response curve ([4]; relative to both verapamil and the 1% DMSO control, FIG. 3B): shifted the TBZ dose response curve to the left
- shift of the IC50 of TBZ ([4]; seven days incubation, relative to control and verapamil): 3.79 fold
- shift of IVR dose response curve ([5]; relative to the 1% DMSO control, FIG. 3A): shifted the IVR dose response curve to the left
- inhibition of larval motility compared with verapamil [5]: more potent inhibition of larval motility

Compound: 4-deoxy-3,4[2-spiro-[1-(isobutyloxycarbonyl)-piperidin-4-yl]]-(1H)-imidazo-(2,5-dihydro)rifamycin S [RTI-79]
- time to maximal plasma concentration [6]: ≤ 3 h
- drug efflux from cells (P-gp): prevent drug efflux from cells
- inhibition of strains (DAPI staining, RLU) (P. Falciparum [7]; all strains, FIGS. 1A-1C): Dose-dependent inhibition of all strains
- IC50 (P. Falciparum [7]; all variants (3D7, Dd2, K1; chloroquine-sensitive and -resistant), read-out: observed IC50): ~625 nM
- inhibition of larval motility compared with verapamil [5]: more potent inhibition of larval motility
